Legend:
PPARγ = molecular target: T1, PPARγ (Homo sapiens, UniProt P37231); experiment: PPARγ transactivation on HepG2 cells (GAL4 LBD reporter); format: cell-based; conditions: 10 μM
T1 construct: expressed in transfected cells; host or cells: HepG2
T1 sequence (P37231 238-503 limits assumed): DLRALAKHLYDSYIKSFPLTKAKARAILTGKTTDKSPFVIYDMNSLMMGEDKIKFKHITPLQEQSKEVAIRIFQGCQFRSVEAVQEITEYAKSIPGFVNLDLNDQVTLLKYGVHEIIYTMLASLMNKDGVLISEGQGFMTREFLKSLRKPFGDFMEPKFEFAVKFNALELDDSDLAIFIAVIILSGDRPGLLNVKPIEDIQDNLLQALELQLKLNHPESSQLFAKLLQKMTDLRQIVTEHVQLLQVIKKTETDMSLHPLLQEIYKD
Protocol: To evaluate LXRα and LXRβ mediated transactivation, HepG2 cells were transfected with 200 ng of the reporter vector p(UAS)5XTKLuc, 100 ng of a vector containing the ligand binding domain of LXRα or LXRβ cloned upstream of the GAL4-DNA binding domain (i.e., pSG5-LXRαLBD-GAL4DBD or pSG5-LXRβLBD-GAL4DBD) and 100 of pGL4.70 Renilla. At 24 h post-transfection, cells were stimulated 18 h with 10 μM compound 2 and GW3965 (GW, 10 μM) was used as positive control. To investigate the PPARα and PPARγ mediated transactivation, HepG2 cells were transiently transfected with 200 ng reporter vector p(UAS)9XTKLuc, 100 ng of a vector containing the ligand binding domain of PPARα or PPARγ cloned upstream of the GAL4-DNA binding domain (i.e., pSG5- PPARαLBD-GAL4DBD or pSG5- PPARγLBD-GAL4DBD) and 100 of pGL4.70 Renilla. For PPARα transactivation, cells were stimulated with 10 μM compound 2 and gemfibrozil (GEM, 10 μM) was used as positive control. For PPARγ transactivation, cells were stimulated with 10 μM compound 2 and rosiglitazone (ROSI, 100 nM) was used as a positive control. Luciferase activities were assayed and normalized with Renilla activities.

hFXR = molecular target: T2, hFXR (Homo sapiens, UniProt Q96RI1); experiment: FXR transactivation on HepG2 cells (luciferase reporter); format: cell-based
T2 construct: expressed in transfected cells; host or cells: HepG2
T2 sequence (Q96RI1 1-486): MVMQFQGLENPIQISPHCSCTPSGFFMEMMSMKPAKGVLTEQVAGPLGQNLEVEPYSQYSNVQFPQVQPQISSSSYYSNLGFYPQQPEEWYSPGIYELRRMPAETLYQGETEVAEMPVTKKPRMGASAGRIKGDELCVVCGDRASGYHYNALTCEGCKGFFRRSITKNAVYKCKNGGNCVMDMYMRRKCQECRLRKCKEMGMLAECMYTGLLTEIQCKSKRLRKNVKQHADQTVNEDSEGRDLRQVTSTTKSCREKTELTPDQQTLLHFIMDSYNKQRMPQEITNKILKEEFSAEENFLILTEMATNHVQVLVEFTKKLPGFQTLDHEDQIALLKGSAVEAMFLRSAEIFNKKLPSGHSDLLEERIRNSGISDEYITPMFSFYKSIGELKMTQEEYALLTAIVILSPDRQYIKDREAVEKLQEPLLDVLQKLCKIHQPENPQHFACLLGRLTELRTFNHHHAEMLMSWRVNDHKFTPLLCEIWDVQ
T2 sequence (P19793 1-462 partner): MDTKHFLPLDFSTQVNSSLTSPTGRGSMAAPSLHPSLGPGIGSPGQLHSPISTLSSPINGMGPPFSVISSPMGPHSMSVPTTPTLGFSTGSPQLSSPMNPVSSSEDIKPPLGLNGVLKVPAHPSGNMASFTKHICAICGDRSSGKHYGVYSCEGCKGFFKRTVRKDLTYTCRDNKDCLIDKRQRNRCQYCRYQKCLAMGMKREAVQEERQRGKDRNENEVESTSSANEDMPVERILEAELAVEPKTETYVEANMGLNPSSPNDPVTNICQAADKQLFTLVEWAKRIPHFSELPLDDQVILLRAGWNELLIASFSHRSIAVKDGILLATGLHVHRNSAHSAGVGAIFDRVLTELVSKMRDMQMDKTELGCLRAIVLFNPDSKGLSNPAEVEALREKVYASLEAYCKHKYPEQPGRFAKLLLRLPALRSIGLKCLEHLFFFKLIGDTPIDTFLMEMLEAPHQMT
Protocol: HepG2 (HB, 8065 from ATCC), an immortalized human epatocarcinoma cell line, was cultured and maintained at 37°C and 5% CO2 in E-MEM additioned with 10% FBS, 1% glutamine, and 1% penicillin/streptomycin. For FXR mediated transactivation, HepG2 cells were plated at 5 × 10^4 cells/well in a 24 well plate. Cells were transfected with 200 ng of the reporter vector p(hsp27)-TK-LUC containing a FXR response element (IR1) cloned from the promoter of heat shock protein 27 (hsp27), 100 ng of pSG5-FXR, 100 ng of pSG5-RXR, and 100 ng of pGL4.70 (Promega), a vector encoding the human Renilla gene. For GPBAR1 mediated transactivation, HepG2 cells were plated at 5 × 10^4 cells/well in a 24 well-plate and transfected with 200 ng of pGL4.29 (Promega), a reporter vector containing a cAMP response element (CRE) that drives the transcription of the luciferase reporter gene luc2P, with 100 ng of pCMVSPORT6-human GPBAR1, and with 100 ng of pGL4.70 Renilla. […]. TLCA (10 μM) was used as a positive control for GPBAR1 activity.
HepG2 cells were transfected as described above and then treated with increasing concentrations of compounds. At 18 h post stimulations, cellular lysates were assayed for luciferase and Renilla activities using the Dual-Luciferase Reporter assay system (E1980, Promega). Luminescence was measured using Glomax 20/20 luminometer (Promega). Luciferase activities were normalized with Renilla activities.

## CC[C@H]1[C@@H](O)[C@@H]2[C@H](CC[C@]3(C)[C@@H]([C@H](C)CCC(=O)O)CC[C@@H]23)[C@@]2(C)CC[C@H](N=[N+]=[N-])C[C@@H]12 [compound 2, 3β-azido-6α-ethyl-7α-hydroxy-5β-cholan-24-oic acid]
PPARγ
  PPARγ transactivation: unable in inducing
hFXR; 10 nM to 25 μM, 18 h
  EC50: 0.846 µM
hFXR; 10 μM
  FXR transactivation compared with 6-ECDCA: equipotent with 6-ECDCA

Source: article PMC5371667, “Targeting Bile Acid Receptors: Discovery of a Potent and Selective Farnesoid X Receptor Agonist as a New Lead in the Pharmacological Approach to Liver Diseases” (Frontiers in Pharmacology, 2017)
